Laboratory results reported in patent publication US9988390B2, “Pyrimidone derivatives and their use in the treatment, amelioration or prevention of a viral disease” (F. Hoffmann-La Roche AG, priority 2015, dated 2018).
pIC50: −log10 of the molar value.

What follows are compounds tested on influenza A virus (A/WSN/33 NanoLuc reporter virus) in A549 cells (assay: microbe, parasite or virus in culture). Settings: A549, 24 h, read-out: IC50 values of viral replication inhibition in a cell-based Luciferase Reporter Assay (LRA).
Format: cell-based
In the case of CNC(=N)Nc1nc(=O)c(O)c2n1[C@@H](C(c1ccccc1)c1ccccc1)CN(C(C)C)C2=O [Ia-50, 1-[(4S)-4-Benzhydryl-9-hydroxy-2-isopropyl-1,8-dioxo-3,4-dihydropyrazino[1,2-c]pyrimidin-6-yl]-3-methyl-guanidine], the pIC50 was 5.97.
Work on CCS(=O)(=O)c1nc(=O)c(O)c2n1[C@@H](C(c1ccccc1)c1ccccc1)CN(C(C)C)C2=O [Ia-39, (4S)-4-Benzhydryl-6-ethylsulfonyl-9-hydroxy-2-isopropyl-3,4-dihydropyrazino[1,2-c]pyrimidine-1,8-dione] yielded a pIC50 of 6.33.
CC(C)N1C[C@H](C(c2ccccc2)c2ccccc2)n2c(O)nc(=O)c(O)c2C1=O [Example 1a-6, (4S)-4-Benzhydryl-6,9-dihydroxy-2-isopropyl-3,4-dihydropyrazino[1,2-c]pyrimidine-1,8-dione] showed a pIC50 of 6.66.
For C=Cc1nc(=O)c(O)c2n1C(C1c3ccccc3CCc3ccccc31)CN(C(C)C)C2=O (stereo not shown) [Ia-47, 4-(6,11-Dihydro-5H-dibenzo[2,1-b:1′,2′-e][7]annulen-11-yl)-9-hydroxy-2-isopropyl-6-vinyl-3,4-dihydropyrazino[1,2-c]pyrimidine-1,8-dione], the pIC50 was 7.40.
